Measured values as given in ChEMBL document CHEMBL1144392, “2,3-Diaminopyridine as a platform for designing structurally unique nonpeptide bradykinin B1 receptor antagonists” (Bioorg Med Chem Lett, 2005).

How the values were obtained:
[1] = molecular target: T1, B1 bradykinin receptor (Homo sapiens, UniProt P46663); test: Inhibitory constant against human Bradykinin receptor B1 expressed in chinese hamster ovary cells; format: cell-based, CHO
T1 sequence (P46663 whole entry): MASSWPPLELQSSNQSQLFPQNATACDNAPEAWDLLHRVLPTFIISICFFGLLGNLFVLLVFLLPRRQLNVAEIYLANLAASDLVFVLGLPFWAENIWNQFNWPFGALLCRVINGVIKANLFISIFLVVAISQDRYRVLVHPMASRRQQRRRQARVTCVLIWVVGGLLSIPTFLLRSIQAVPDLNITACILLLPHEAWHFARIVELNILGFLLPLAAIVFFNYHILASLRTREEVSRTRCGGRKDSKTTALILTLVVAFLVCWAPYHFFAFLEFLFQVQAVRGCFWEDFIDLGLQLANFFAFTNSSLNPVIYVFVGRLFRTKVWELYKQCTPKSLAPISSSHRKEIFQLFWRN

[2] = Clearance in the Sprague Dawley rats; (n = 3); format: ADME, organism-based; conditions: rat, in vivo
[3] = Half life in the Sprague Dawley rats; (n = 3); format: ADME; conditions: rat, in vivo
[4] = Oral bioavailability in the Sprague Dawley rats; (n = 3); format: ADME, organism-based; conditions: rat, in vivo
[5] = Half life in the Sprague Dawley rats; (n = 3); ND = not determined; format: ADME; conditions: rat, in vivo

| Ki [1] [nM] | clearance [2] [mL/min/kg] | half-life [3] [min] | bioavailability [4] [%] | half-life [5] [min] | Structure (SMILES) |
| --- | --- | --- | --- | --- | --- |
| 1280 |  |  |  |  | COC(=O)c1ccccc1-c1ccc(CNc2ncccc2NC(=O)CN(C)C)cc1 |
| 33 | 15 | 18 | 95 |  | CNC(=O)c1ccccc1-c1ccc(CNc2ncccc2NC(=O)CC(F)(F)F)cc1 |
| 6 | 31 | 30 | 25 |  | CNC(=O)c1ccccc1-c1ccc([C@@H](C)Nc2nccc(C)c2NC(=O)CC(F)(F)F)cc1 |
| 1.8 | 8 | 54 | 17 |  | COC(=O)c1ccccc1-c1ccc([C@@H](C)Nc2nccc(C)c2NC(=O)CC(F)(F)F)cc1 |
| 40 |  |  |  |  | COC(=O)c1ccccc1-c1ccc(CNc2ncccc2NC(=O)CS(C)(=O)=O)cc1 |
| 390 |  |  |  |  | COCC(=O)Nc1cccnc1NCc1ccc(-c2ccccc2C(=O)OC)cc1 |
| 2.6 | 18.5 | 12 | 27 |  | COC(=O)c1ccccc1-c1ccc([C@@H](C)Nc2nccc(C)c2NC(=O)CC#N)cc1 |
| 88 | 23 | 24 | 15 |  | CCCC(=O)Nc1cccnc1NCc1ccc(-c2ccccc2C(=O)OC)cc1 |
| 7.1 | 14 | 24 | 40 |  | COC(=O)c1ccccc1-c1ccc(CNc2nccc(C)c2NC(=O)CC(F)(F)F)cc1 |
| 11 | 30 | 60 | 79 |  | CNC(=O)c1ccccc1-c1ccc(CNc2nccc(C)c2NC(=O)CC(F)(F)F)cc1 |
| 11.5 | 4.3 | 120 | 19 |  | Cc1ccnc(NCc2ccc(-c3ccccc3C(=O)O)cc2)c1NC(=O)CC#N |
| 119 |  |  |  |  | CCC(=O)Nc1cccnc1NCc1ccc(-c2ccccc2C(=O)OC)cc1 |
|  | 30 | 12 | 2 |  | CCCCC(=O)Nc1cccnc1NCc1ccc(-c2ccccc2C(=O)OC)cc1 |
| 230 |  |  |  |  | COC(=O)c1ccccc1-c1ccc(CNc2ncccc2NC(=O)C(C)C)cc1 |
| 11 | 18 | 48 | 28 |  | COC(=O)c1ccccc1-c1ccc(CNc2ncccc2NC(=O)CC#N)cc1 |
|  | 35 |  | 9 | 12 | COC(=O)c1ccccc1-c1ccc(CNc2ncccc2NC(=O)CC(F)(F)F)cc1 |
